# Data published in ChEMBL document CHEMBL3751805, “Novel Tacrine-Benzofuran Hybrids as Potent Multitarget-Directed Ligands for the Treatment of Alzheimer's Disease: Design, Synthesis, Biological Evaluation, and X-ray Crystallography” (J Med Chem, 2016).
# Calls of active or inactive are those of the source. The rule behind the calls is not given here.
# Tests used:
# [1] = target: Cholinesterase (Homo sapiens, UniProt P06276)
# Description: Inhibition of human serum BChE using butyrylthiocholine iodide as substrate preincubated for 20 mins followed by substrate addition by Ellman's method
# [2] = target: T1, Acetylcholinesterase (Homo sapiens, UniProt P22303)
# T1 sequence (P22303 whole entry): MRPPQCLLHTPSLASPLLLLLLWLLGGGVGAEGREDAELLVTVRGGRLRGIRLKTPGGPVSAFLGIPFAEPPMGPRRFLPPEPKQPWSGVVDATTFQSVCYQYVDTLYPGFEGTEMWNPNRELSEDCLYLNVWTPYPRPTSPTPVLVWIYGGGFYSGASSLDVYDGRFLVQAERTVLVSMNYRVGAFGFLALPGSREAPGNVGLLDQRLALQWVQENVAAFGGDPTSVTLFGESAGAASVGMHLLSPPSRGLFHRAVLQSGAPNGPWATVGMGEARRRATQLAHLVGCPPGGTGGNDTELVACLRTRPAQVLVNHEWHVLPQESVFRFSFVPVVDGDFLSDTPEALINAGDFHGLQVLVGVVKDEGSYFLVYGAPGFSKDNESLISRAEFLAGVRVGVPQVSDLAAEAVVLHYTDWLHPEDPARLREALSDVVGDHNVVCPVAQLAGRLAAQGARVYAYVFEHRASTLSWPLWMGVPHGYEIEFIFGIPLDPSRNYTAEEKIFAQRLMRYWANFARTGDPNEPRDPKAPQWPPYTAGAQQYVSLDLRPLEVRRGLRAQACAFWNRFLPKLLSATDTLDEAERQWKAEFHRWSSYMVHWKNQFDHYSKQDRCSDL
# Description: Inhibition of recombinant human AChE using acetylthiocholine iodide as substrate preincubated for 20 mins followed by substrate addition by Ellman's method
# [3] = target: T2, Amyloid-beta precursor protein (Homo sapiens, UniProt P05067); conditions: at 10 µM
# T2 sequence (P05067 whole entry): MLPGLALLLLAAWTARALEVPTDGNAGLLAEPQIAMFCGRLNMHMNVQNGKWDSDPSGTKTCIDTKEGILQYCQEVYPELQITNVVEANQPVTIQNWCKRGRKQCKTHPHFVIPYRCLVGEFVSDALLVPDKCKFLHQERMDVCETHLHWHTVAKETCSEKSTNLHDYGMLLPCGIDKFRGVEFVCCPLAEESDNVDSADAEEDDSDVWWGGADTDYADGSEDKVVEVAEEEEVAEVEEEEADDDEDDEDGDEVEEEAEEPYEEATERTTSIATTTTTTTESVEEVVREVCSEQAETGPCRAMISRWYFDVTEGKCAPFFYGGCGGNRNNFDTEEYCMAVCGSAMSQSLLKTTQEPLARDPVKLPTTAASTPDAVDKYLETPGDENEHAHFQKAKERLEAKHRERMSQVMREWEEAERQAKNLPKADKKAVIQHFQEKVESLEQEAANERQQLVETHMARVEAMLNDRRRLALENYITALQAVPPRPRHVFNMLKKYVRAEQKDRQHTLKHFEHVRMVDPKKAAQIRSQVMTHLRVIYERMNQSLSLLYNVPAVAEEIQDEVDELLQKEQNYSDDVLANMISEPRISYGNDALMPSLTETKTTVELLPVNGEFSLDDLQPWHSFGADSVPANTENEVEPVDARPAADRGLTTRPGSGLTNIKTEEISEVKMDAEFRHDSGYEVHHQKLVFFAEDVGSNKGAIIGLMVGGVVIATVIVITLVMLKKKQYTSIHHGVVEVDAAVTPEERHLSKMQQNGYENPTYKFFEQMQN
# Description: Inhibition of HFIP pretreated Amyloid beta (1 to 42) (unknown origin) self-induced aggregation at 10 uM incubated for 24 hrs by Thioflavin T-based fluorometric assay
# [4] = target: T2, Amyloid-beta precursor protein; test: Inhibition of Amyloid beta (1 to 42) (unknown origin) self-induced aggregation incubated for 24 hrs by Thioflavin T-based fluorometric assay
# [5] = test system: SH-SY5Y; test: Cytotoxicity against human SH-SY5Y cells assessed as reduction in cell viability at 3 to 30 uM after 48 hrs by MTT assay; assay type: cell-based
# [6] = target: T3, Beta-secretase 1 (Homo sapiens, UniProt P56817)
# T3 sequence (P56817 whole entry): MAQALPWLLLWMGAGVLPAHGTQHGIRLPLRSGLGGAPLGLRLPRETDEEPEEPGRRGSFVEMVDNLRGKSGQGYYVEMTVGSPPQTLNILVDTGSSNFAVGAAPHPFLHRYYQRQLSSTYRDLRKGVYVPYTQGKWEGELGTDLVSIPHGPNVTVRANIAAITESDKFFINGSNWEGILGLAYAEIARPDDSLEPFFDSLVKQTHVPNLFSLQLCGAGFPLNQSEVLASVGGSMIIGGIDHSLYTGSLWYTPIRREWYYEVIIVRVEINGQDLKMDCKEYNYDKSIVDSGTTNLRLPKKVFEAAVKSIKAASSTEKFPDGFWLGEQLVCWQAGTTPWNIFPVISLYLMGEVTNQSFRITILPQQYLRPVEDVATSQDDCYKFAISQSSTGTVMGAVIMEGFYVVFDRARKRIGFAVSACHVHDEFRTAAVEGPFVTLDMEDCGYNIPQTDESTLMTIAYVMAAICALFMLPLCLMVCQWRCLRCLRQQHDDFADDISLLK
# Description: Inhibition of recombinant human BACE-1 using M-2420 as substrate preincubated for 1 hr followed by substrate addition measured after 15 mins by FRET assay
# [7] = target: T3, Beta-secretase 1; test: Inhibition of BACE-1 (unknown origin) using M-2420 as substrate preincubated for 1 hr followed by substrate addition measured after 15 mins by FRET assay
# [8] = target: T1, Acetylcholinesterase; test: Mixed-type inhibition of recombinant human AChE using acetylthiocholine iodide as substrate assessed as enzyme-inhibitor complex by Lineweaver-Burk double reciprocal plot method
# [9] = target: T1, Acetylcholinesterase; test: Mixed-type inhibition of recombinant human AChE using acetylthiocholine iodide as substrate assessed as enzyme-substrate-inhibitor complex by Lineweaver-Burk double reciprocal plot method
# [10] = target: T4, Acetylcholinesterase (Torpedo californica, UniProt P04058); test: Competitive inhibition of Torpedo californica AChE using ATCh as substrate assessed as dissociation rate constant preincubated for 90 mins followed by substrate addition by potentiometric titration method; design: species or system Tetronarce californica
# T4 sequence (P04058 whole entry): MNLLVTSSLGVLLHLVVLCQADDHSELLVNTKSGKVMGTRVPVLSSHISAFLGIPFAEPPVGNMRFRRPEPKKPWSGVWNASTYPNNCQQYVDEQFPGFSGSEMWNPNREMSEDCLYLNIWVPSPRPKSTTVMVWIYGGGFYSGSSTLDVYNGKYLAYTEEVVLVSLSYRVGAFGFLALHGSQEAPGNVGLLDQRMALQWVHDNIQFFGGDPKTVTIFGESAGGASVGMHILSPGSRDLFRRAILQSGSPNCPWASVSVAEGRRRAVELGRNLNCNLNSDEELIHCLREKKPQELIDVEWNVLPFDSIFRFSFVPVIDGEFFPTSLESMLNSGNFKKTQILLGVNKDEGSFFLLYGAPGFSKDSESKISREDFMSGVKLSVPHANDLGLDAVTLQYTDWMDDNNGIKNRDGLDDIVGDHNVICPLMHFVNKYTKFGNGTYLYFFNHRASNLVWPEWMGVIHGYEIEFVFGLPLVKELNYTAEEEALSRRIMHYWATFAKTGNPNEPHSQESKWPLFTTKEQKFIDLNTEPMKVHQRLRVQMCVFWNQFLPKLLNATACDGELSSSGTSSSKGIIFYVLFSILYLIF
# [11] = target: T4, Acetylcholinesterase; test: Noncompetitive inhibition of Torpedo californica AChE using ATCh as substrate assessed as dissociation rate constant preincubated for 90 mins followed by substrate addition by potentiometric titration method; design: species or system Tetronarce californica
# [12] = target: T4, Acetylcholinesterase; test: Competitive inhibition of Torpedo californica AChE using ATCh as substrate preincubated for 90 mins followed by substrate addition by potentiometric titration method; design: species or system Tetronarce californica
# [13] = target: T4, Acetylcholinesterase; test: Noncompetitive inhibition of Torpedo californica AChE using ATCh as substrate preincubated for 90 mins followed by substrate addition by potentiometric titration method; design: species or system Tetronarce californica
# [14] = test system: Mus musculus; assay type: toxicity, organism-based, ICR; conditions: in vivo, po, 30 mg/kg, 8 h
# [15] = test system: Mus musculus; test: Hepatotoxicity in ICR mouse assessed as serum alanine aminotransferase level dosed ig at equimolar dose of 30 mg/kg tacrine after 22 hrs by spectrophotometry analysis (reference value: 40.1 +/- 9.9 U/L); assay type: toxicity, organism-based; conditions: in vivo, po
# [16] = test system: Mus musculus; test: Hepatotoxicity in ICR mouse assessed as serum alanine aminotransferase level dosed ig at equimolar dose of 30 mg/kg tacrine after 36 hrs by spectrophotometry analysis (reference value: 38.1 +/- 8.2 U/L); assay type: toxicity, organism-based; conditions: in vivo, po
# [17] = test system: Mus musculus; test: Hepatotoxicity in ICR mouse assessed as serum aspartate aminotransferase level dosed ig at equimolar dose of 30 mg/kg tacrine after 8 hrs by spectrophotometry analysis (reference value: 113.3 +/- 30 U/L); assay type: toxicity, organism-based; conditions: in vivo, po
# [18] = test system: Mus musculus; test: Hepatotoxicity in ICR mouse assessed as serum aspartate aminotransferase level dosed ig at equimolar dose of 30 mg/kg tacrine after 22 hrs by spectrophotometry analysis (reference value: […] +/- 31.1 U/L); assay type: toxicity, organism-based; conditions: in vivo, po
# [19] = test system: Mus musculus; assay type: toxicity, organism-based, ICR; conditions: in vivo, po, 30 mg/kg, 36 h
# [20] = test system: Mus musculus; test: Hepatotoxicity in ICR mouse assessed as elevation in serum alanine aminotransferase level dosed ig at equimolar dose of 30 mg/kg tacrine after 8 hrs by spectrophotometry analysis relative to control; assay type: toxicity, organism-based; conditions: in vivo, po
# [21] = test system: Mus musculus; test: Hepatotoxicity in ICR mouse assessed as elevation in serum aspartate aminotransferase level dosed ig at equimolar dose of 30 mg/kg tacrine after 8 hrs by spectrophotometry analysis relative to control; assay type: toxicity, organism-based; conditions: in vivo, po
# [22] = target: Acetylcholinesterase (Torpedo californica) (UniProt P04058); conditions: Tetronarce californica; 1 to 10 nM
# Sequence of Acetylcholinesterase (Torpedo californica) (P04058 22-564 limits assumed): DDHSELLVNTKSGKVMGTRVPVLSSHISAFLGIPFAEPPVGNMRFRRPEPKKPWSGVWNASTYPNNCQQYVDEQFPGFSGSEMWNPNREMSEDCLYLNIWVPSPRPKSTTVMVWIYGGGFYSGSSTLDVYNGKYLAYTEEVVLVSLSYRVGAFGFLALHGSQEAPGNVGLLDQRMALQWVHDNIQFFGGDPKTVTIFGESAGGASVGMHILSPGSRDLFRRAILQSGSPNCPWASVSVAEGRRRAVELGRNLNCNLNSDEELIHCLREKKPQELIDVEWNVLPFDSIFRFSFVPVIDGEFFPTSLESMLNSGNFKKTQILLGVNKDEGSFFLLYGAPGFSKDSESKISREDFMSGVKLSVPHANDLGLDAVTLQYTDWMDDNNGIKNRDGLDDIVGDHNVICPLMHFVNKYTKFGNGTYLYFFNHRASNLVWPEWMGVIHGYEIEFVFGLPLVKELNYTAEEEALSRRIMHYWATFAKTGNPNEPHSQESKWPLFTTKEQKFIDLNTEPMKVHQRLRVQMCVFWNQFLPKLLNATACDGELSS
# [23] = target: Acetylcholinesterase (Torpedo californica) (UniProt P04058); conditions: Tetronarce californica; 0.3 nM
# [24] = target: Acetylcholinesterase (Torpedo californica) (UniProt P04058); conditions: Tetronarce californica
# Description: Competitive inhibition of Torpedo californica AChE using ATCh as substrate assessed as second order association constant preincubated for 90 mins followed by substrate addition by potentiometric titration method
# [25] = target: Acetylcholinesterase (Torpedo californica) (UniProt P04058); conditions: Tetronarce californica; remark: listed apart in the source
# Description: Noncompetitive inhibition of Torpedo californica AChE using ATCh as substrate assessed as second order association constant preincubated for 90 mins followed by substrate addition by potentiometric titration method
# [26] = in vitro; conditions: human, SH-SY5Y cells
# Description: Cytotoxicity against human SH-SY5Y cells assessed as cell viability at 30 uM after 48 hrs by MTT assay
# Sequence of Cholinesterase (P06276 whole entry): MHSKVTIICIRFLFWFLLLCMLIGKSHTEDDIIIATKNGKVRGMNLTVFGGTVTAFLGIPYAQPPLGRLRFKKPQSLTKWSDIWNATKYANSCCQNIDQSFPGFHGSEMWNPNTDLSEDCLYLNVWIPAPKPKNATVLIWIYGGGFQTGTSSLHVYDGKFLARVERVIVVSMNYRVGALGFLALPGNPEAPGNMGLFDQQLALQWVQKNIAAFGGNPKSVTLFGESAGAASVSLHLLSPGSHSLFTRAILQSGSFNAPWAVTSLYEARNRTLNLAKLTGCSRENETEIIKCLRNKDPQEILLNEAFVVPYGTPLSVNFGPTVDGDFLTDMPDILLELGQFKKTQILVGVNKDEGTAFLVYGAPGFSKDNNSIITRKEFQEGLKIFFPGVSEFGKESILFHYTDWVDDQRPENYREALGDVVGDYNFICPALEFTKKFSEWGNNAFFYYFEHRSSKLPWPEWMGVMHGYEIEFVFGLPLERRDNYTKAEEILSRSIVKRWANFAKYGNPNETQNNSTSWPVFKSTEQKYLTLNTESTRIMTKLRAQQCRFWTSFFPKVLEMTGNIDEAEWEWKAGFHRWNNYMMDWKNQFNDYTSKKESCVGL
SMILES,IC50 [1] [nM],IC50 [2] [nM],inhibition [3] [%],other results
COc1cccc2cc(C(=O)NCCCCCCCNc3c4c(nc5ccccc35)CCC4)oc12,26.1,993,19.6,–
c1ccc2oc(CNCCCCCCNc3c4c(nc5ccccc35)CCC4)cc2c1,2.48,47,9.3,–
COc1cccc2cc(C(=O)NCCCCCCNc3c4c(nc5ccccc35)CCC4)oc12,80.6,1680,32.6,–
c1ccc2c(NCCCCCCCNc3c4c(nc5ccccc35)CCCC4)c3c(nc2c1)CCCC3,–,–,50.1,IC50 [4]: 8400 nM
COc1cccc2cc(CN(CCCCCCNc3c4c(nc5ccccc35)CCCC4)Cc3cc4cccc(OC)c4o3)oc12,0.48,260,44.6,Activity [5]: Toxic; IC50 [6]: 190 nM
O=C(NCCCCCCNc1c2c(nc3ccccc13)CCCC2)c1cc2ccccc2o1,4.68,424,13.7,–
O=C(NCCCCCCNc1c2c(nc3ccccc13)CCCCC2)c1cc2ccccc2o1,10.8,308,24.2,–
O=C(NCCCCCCCNc1c2c(nc3ccccc13)CCCCC2)c1cc2ccccc2o1,11.6,323,17.3,–
O=C(NCCCCCCCNc1c2c(nc3ccccc13)CCCC2)c1cc2ccccc2o1,6.9,76.9,26.2,Activity [5]: Toxic
COc1cccc2cc(CNCCCCCCNc3c4c(nc5ccccc35)CCC4)oc12,1.3,63.1,64.1,–
NC1=NC(c2ccc(F)cc2)NC(=O)N1 (stereo unspecified),–,–,–,IC50 [7]: 18000 nM
COc1cccc2cc(CNCCCCCCCNc3c4c(nc5ccccc35)CCCCC4)oc12,1.23,2.56,31.9,–
O=C(NCCCCCCNc1c2c(nc3ccccc13)CCC2)c1cc2ccccc2o1,15.7,545,18.7,–
c1ccc2oc(CN(CCCCCCNc3c4c(nc5ccccc35)CCC4)Cc3cc4ccccc4o3)cc2c1,8.89,2070,62.2,–
COc1cccc2cc(C(=O)NCCCCCCCNc3c4c(nc5ccccc35)CCCC4)oc12,7.35,44.2,42.5,IC50 [6]: 430 nM
c1ccc2oc(CN(CCCCCCCNc3c4c(nc5ccccc35)CCCC4)Cc3cc4ccccc4o3)cc2c1,6.86,117,44.5,IC50 [6]: 620 nM
COc1cccc2cc(C(=O)NCCCCCCCNc3c4c(nc5ccccc35)CCCCC4)oc12,31.9,416,17.7,–
c1ccc2oc(CNCCCCCCCNc3c4c(nc5ccccc35)CCCC4)cc2c1,2.18,0.86,61.3,"Ki [8]: 0.72 nM; Ki [9]: 1.04 nM; Kd [10]: 0.032 s⁻¹; Kd [11]: 0.031 s⁻¹; Ki [12]: 2.2 nM; Ki [13]: 2.1 nM; Activity [14]: 45.1 U/L; Activity [15]: 48.2 U/L; Activity [16]: 42 U/L; Activity [17]: 138.3 U/L; Activity [18]: 134.5 U/L; Activity [19]: 114.7 U/L; fold change (FC) [20]: 1.16; fold change (FC) [21]: 1.22; IC50 [6]: 1350 nM; inhibition [22]: Active; inhibition [23]: Active; Ka [24]: 1.45 ×10⁷ /M/s; Ka [25]: 1.45 ×10⁷ /M/s; viability at 48 h, 30 µM [26]: 63%"
COc1cccc2cc(CN(CCCCCCNc3c4c(nc5ccccc35)CCC4)Cc3cc4cccc(OC)c4o3)oc12,2.3,7490,38.5,–
c1ccc2oc(CN(CCCCCCCNc3c4c(nc5ccccc35)CCCCC4)Cc3cc4ccccc4o3)cc2c1,17.9,200,39.8,–
COc1cccc2cc(CNCCCCCCNc3c4c(nc5ccccc35)CCCC4)oc12,0.49,15.3,52,–
COc1cccc2cc(C(=O)NCCCCCCNc3c4c(nc5ccccc35)CCCC4)oc12,10.2,24.4,40.2,–
COc1cccc2cc(CN(CCCCCCNc3c4c(nc5ccccc35)CCCCC4)Cc3cc4cccc(OC)c4o3)oc12,2.35,1040,25,–
COc1cccc2cc(C(=O)NCCCCCCNc3c4c(nc5ccccc35)CCCCC4)oc12,30,32.3,18.7,–
c1ccc2oc(CN(CCCCCCCNc3c4c(nc5ccccc35)CCC4)Cc3cc4ccccc4o3)cc2c1,12.8,222,30.7,–
COc1cccc2cc(CN(CCCCCCCNc3c4c(nc5ccccc35)CCCCC4)Cc3cc4cccc(OC)c4o3)oc12,4.87,199,37.3,–
c1ccc2oc(CNCCCCCCCNc3c4c(nc5ccccc35)CCC4)cc2c1,2.54,10.8,76.2,–
O=C(NCCCCCCCNc1c2c(nc3ccccc13)CCC2)c1cc2ccccc2o1,30.9,48.6,10.2,–
